Legend:
[1] = excess molar enthalpy (molar enthalpy of mixing); xn = mol fraction of the nth substance listed; details: 298.15 K, 101 kPa, Liquid, isothermal titration calorimeter
[2] = xn = mol fraction of the nth substance listed; details: 101.33 kPa, Liquid, Vibrating tube method

c1cc[nH]c1 [pyrrole] + c1ccncc1
[1]
Details	excess molar enthalpy [kcal/mol]
x1 = 0.03	-0.0466
x1 = 0.06	-0.106
x1 = 0.0898	-0.164
x1 = 0.1197	-0.22
x1 = 0.1497	-0.274
x1 = 0.1797	-0.326
x1 = 0.2096	-0.375
x1 = 0.2395	-0.422
x1 = 0.2695	-0.466
x1 = 0.2994	-0.505
x1 = 0.3295	-0.541
x1 = 0.3594	-0.572
x1 = 0.3895	-0.597
x1 = 0.4195	-0.616
x1 = 0.4495	-0.629
x1 = 0.4795	-0.634
x1 = 0.4832	-0.637
x1 = 0.4902	-0.637
x1 = 0.5095	-0.633
x1 = 0.5202	-0.633
x1 = 0.5396	-0.625
x1 = 0.5502	-0.622
x1 = 0.5696	-0.61
x1 = 0.5802	-0.604
x1 = 0.5906	-0.595
x1 = 0.6102	-0.58
x1 = 0.6402	-0.551
x1 = 0.6702	-0.517
x1 = 0.7002	-0.479
x1 = 0.7302	-0.437
x1 = 0.7602	-0.393
x1 = 0.7901	-0.347
x1 = 0.8201	-0.298
x1 = 0.8501	-0.249
x1 = 0.8801	-0.198
x1 = 0.9101	-0.147
x1 = 0.9401	-0.0953
x1 = 0.9701	-0.0432

mass density [kg/m3], [2]
Details	298.15 K	308.15 K	318.15 K	328.15 K	338.15 K
x1 = 0.0735	977.37	967.47	957.53	947.53	937.46
x1 = 0.1006	977.04	967.22	957.34	947.41	937.4
x1 = 0.1428	976.57	966.85	957.07	947.23	937.32
x1 = 0.1978	975.9	966.3	956.66	946.95	937.15
x1 = 0.2273	975.56	966.03	956.45	946.8	937.07
x1 = 0.3021	974.44	965.06	955.63	946.12	936.52
x1 = 0.3704	973.5	964.22	954.89	945.49	936.01
x1 = 0.4409	972.25	963.08	953.85	944.54	935.14
x1 = 0.5426	970.64	961.59	952.47	943.27	933.99
x1 = 0.6168	969.44	960.46	951.41	942.28	933.06
x1 = 0.682	968.6	959.68	950.68	941.6	932.43
x1 = 0.7554	967.69	958.82	949.87	940.85	931.72
x1 = 0.8374	966.69	957.88	948.98	939.99	930.91
x1 = 0.9063	966.15	957.38	948.53	939.58	930.54
x1 = 0.9591	965.77	957.04	948.21	939.3	930.28
x1 = 1	965.54	956.83	948.03	939.14	930.13

— the NIST ThermoML archive (doi:10.1016/j.fluid.2013.10.029)
